Source: US11530244B2, “Cyclic polypeptides for PCSK9 inhibition” (priority 2018, dated 2022)
Starred links: 1 amine or outer side, 2 acyl side, 3 side chain; linkers in the order of their positions; H or OH if unused. Positions of bridges follow the written chain, without caps; N, C: chain ends. Non-standard residues stand in square brackets, D forms with d. Residues, ends and D or L forms follow the SMILES beside them. Groups on a side chain read outwards from the residue. *: point of attachment. Pro(trans-4-Ph) = O=C(O)[C@@H]1C[C@@H](c2ccccc2)CN1; X25 = O=C([C@H](Cc1cccc(OCC=[*:3])c1)N[*:1])[*:2]; Trp(5-F) = N[C@@H](Cc1c[nH]c2ccc(F)cc12)C(=O)O; Trp(7-aza) = N[C@@H](Cc1c[nH]c2ncccc12)C(=O)O; X3 = O=C(CCSCc1cc(F)cc(CSCCN[*:1])c1)[*:2]; X42 = CN([C@@H](CCC=[*:3])C(=O)[*:2])[*:1]; NMeW = CN[C@@H](Cc1c[nH]c2ccccc12)C(=O)O; X4 = O=C(CCSCc1cccc(CSCCN[*:1])c1)[*:2]; γGlu = O=C(O)[C@H](CCC(=O)[*:2])N[*:1]; 1Nal = N[C@@H](Cc1cccc2ccccc12)C(=O)O; mXylylene = c1cc(C[*:1])cc(C[*:2])c1; NMeY = CN[C@@H](Cc1ccc(O)cc1)C(=O)O; X54 = c1cc2ccc(C[*:2])cc2cc1C[*:1]; Palmitoyl = CCCCCCCCCCCCCCCC(=O)*; hPhe = N[C@@H](CCc1ccccc1)C(=O)O; αMeP = C[C@@]1(C(=O)O)CCCN1; Pip = O=C(O)[C@@H]1CCCCN1; NMeA = CN[C@@H](C)C(=O)O; Orn = NCCC[C@H](N)C(=O)O; Aib = CC(C)(N)C(=O)O; Mpa = O=C(O)CCS; Sar = CNCC(=O)O

Biological target: human PCSK9 / human LDLR EGFa domain interaction (Homo sapiens (Human), UniProt Q8NBP7)
Sequence (Q8NBP7 153-692): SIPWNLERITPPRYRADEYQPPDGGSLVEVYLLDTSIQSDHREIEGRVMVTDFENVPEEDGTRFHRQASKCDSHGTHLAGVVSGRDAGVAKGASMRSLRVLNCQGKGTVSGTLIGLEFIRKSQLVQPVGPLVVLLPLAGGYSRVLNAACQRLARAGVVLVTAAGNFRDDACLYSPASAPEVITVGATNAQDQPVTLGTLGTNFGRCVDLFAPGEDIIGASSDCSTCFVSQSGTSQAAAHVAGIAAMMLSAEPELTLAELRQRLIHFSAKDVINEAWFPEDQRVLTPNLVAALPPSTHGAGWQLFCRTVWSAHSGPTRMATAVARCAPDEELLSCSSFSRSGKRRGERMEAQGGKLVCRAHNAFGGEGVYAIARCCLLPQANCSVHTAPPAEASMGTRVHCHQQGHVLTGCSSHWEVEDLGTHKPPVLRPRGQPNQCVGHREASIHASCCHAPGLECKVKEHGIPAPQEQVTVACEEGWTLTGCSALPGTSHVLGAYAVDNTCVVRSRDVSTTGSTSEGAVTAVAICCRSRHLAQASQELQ
Sequence (Q8NBP7 31-152 partner): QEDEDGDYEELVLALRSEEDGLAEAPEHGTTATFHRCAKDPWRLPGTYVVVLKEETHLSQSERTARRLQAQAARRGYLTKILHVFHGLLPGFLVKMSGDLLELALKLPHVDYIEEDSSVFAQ
Assay: TR-FRET assay of inhibition of the PCSK9-LDLR protein-protein interaction
Format: binding
Settings: TR-FRET, 20 nM human PCSK9, 20 nM human LDLR EGFa domain, 2 hours room temperature; read-out: IC50
Method: A time-resolved fluorescence resonance energy (TR-FRET) assay was used to measure inhibition of the PCSK9-LDLR protein-protein interaction. Briefly, 20 nM avitag-biotinylated human PCSK9 was incubated with 20 nM his-tagged human LDLR EGFa domain in the presence of 5 nM LANCE Ulight Streptavidin (Perkin Elmer) and 5 nM europium-Anti-6×His (Perkin Elmer) for 2 hours covered at room temperature in buffer containing 50 mM HEPES, 150 mM NaCl, 5 mM CaCl2), 0.01% BSA and 0.01% Surfactant P20. Compounds were tested in dose-response and concentrations giving half-maximal inhibition calculated using a 4-parameter fit equation.

Structure (SMILES)	IC50 [µM]
CN1CC(=O)N[C@H](C(N)=O)CSCc2cccc(c2)CSCCC(=O)N[C@@H](CCCCN)C(=O)NCC(=O)N[C@@H](Cc2c[nH]c3ccc(F)cc23)C(=O)N[C@@H](Cc2c[nH]c3ccc(F)cc23)C(=O)N[C@@H](CC(=O)O)C(=O)N[C@@H](Cc2cnc[nH]2)C(=O)N[C@@H](Cc2ccc(O)cc2)C1=O [Compound 194] ([Mpa]KG[Trp(5-F)][Trp(5-F)]DHY[Sar]C-NH2; linker 1-10 via mXylylene)	21 to 50
NCCCC[C@@H]1NC(=O)CCSCc2ccc3ccc(cc3c2)CSC[C@@H](C(N)=O)NC(=O)[C@@H]2CCCN2C(=O)[C@H](Cc2ccc(O)cc2)NC(=O)[C@H](Cc2c[nH]cn2)NC(=O)[C@H](CC(=O)O)NC(=O)[C@H](Cc2c[nH]c3ccc(F)cc23)NC(=O)[C@H](Cc2c[nH]c3ccc(F)cc23)NC(=O)CNC1=O [Compound 206] ([Mpa]KG[Trp(5-F)][Trp(5-F)]DHYPC-NH2; linker 1-10 via X54)	21 to 50
COc1ccc(C[C@@H]2NC(=O)[C@@H]3CCCC/C=C/CO[C@H]4C[C@@H](C(=O)N3)N(C4)C(=O)[C@H](Cc3c[nH]c4ccc(F)cc34)NC(=O)[C@H](Cc3c[nH]c4ccc(F)cc34)NC(=O)[C@@H](C)NC(=O)[C@H](CCCCN)NC(=O)CCSCc3cccc(c3)CSC[C@@H](C(N)=O)NC(=O)[C@]3(C)CCCN3C2=O)cc1 [Compound 508]	0.1 to 1
CC(=O)N[C@H]1CCC(=O)NCCC[C@@H](C(N)=O)NC(=O)[C@@H]2CCCN2C(=O)[C@H](Cc2ccc(O)cc2)NC(=O)[C@H](Cc2c[nH]cn2)NC(=O)[C@H](CC(=O)O)NC(=O)[C@H](Cc2c[nH]c3ccc(F)cc23)NC(=O)[C@H](Cc2c[nH]c3ccc(F)cc23)NC(=O)CNC(=O)[C@H](CCCCN)NC1=O [Compound 179] (Ac-EKG[Trp(5-F)][Trp(5-F)]DHYP[Orn]-NH2; lactam 1-10)	1 to 12.1
C[C@@H]1NC(=O)CCSCc2cccc(c2)CSC[C@@H](C(N)=O)NC(=O)[C@]2(C)CCCN2C(=O)[C@H](Cc2ccc(O)cc2)NC(=O)[C@H](Cc2cnc[nH]2)NC(=O)[C@H](CC(=O)O)NC(=O)[C@H](Cc2c[nH]c3ccc(F)cc23)NC(=O)[C@H](Cc2c[nH]c3ccc(F)cc23)NC(=O)CNC1=O [Compound 308] ([Mpa]AG[Trp(5-F)][Trp(5-F)]DHY[αMeP]C-NH2; linker 1-10 via mXylylene)	1 to 12.1
C[C@H]1NC(=O)[C@H](Cc2ccc(O)cc2)NC(=O)[C@H](Cc2cnc[nH]2)NC(=O)[C@H](CC(=O)O)NC(=O)[C@H](Cc2c[nH]c3ccc(F)cc23)NC(=O)[C@H](Cc2c[nH]c3ccc(F)cc23)NC(=O)CNC(=O)[C@H](CCCCN)NC(=O)CCSCc2cccc(c2)CSC[C@@H](C(N)=O)NC1=O [Compound 320] ([Mpa]KG[Trp(5-F)][Trp(5-F)]DHY[dA]C-NH2; linker 1-10 via mXylylene)	21 to 50
NCCCC[C@@H]1NC(=O)CCSCc2cccc(c2)CSC[C@@H](C(N)=O)NC(=O)[C@@H]2CCCN2C(=O)[C@@H](Cc2ccc(O)cc2)NC(=O)[C@H](Cc2cnc[nH]2)NC(=O)[C@H](CC(=O)O)NC(=O)[C@H](Cc2c[nH]c3ccc(F)cc23)NC(=O)[C@H](Cc2c[nH]c3ccc(F)cc23)NC(=O)CNC1=O [Compound 164] ([Mpa]KG[Trp(5-F)][Trp(5-F)]DH[dY]PC-NH2; linker 1-10 via mXylylene)	21 to 50
C[C@H]1NC(=O)[C@H](CCCCN)NC(=O)CCSCc2cccc(c2)CSCCNC(=O)[C@]2(C)CCCN2C(=O)[C@H](Cc2c[nH]c3ncccc23)NC(=O)[C@H](Cc2cnc[nH]2)NC(=O)[C@H](CC(=O)O)NC(=O)[C@H](Cc2c[nH]c3ccc(F)cc23)NC(=O)[C@H](Cc2c[nH]c3ccc(F)cc23)NC1=O [Compound 247] (cyclo(DH[Trp(7-aza)][αMeP][X4]K[dA][Trp(5-F)][Trp(5-F)]))	0.1 to 1
NCCCC[C@@H]1NC(=O)CCSCc2cccc(c2)CSC[C@@H](C(N)=O)NC(=O)[C@@H]2CCCN2C(=O)[C@H](Cc2ccc(O)cc2)NC(=O)[C@H](Cc2c[nH]cn2)NC(=O)[C@H](CC(=O)O)NC(=O)[C@H](Cc2c[nH]c3ccc(F)cc23)NC(=O)[C@H](CCc2ccccc2)NC(=O)CNC1=O [Compound 211] ([Mpa]KG[hPhe][Trp(5-F)]DHYPC-NH2; linker 1-10 via mXylylene)	1 to 12.1
NCCCC[C@@H]1NC(=O)CCSCc2cccc(c2)CSC[C@@H](C(N)=O)NC(=O)[C@@H]2C[C@@H](c3ccccc3)CN2C(=O)[C@H](Cc2ccc(O)cc2)NC(=O)[C@H](Cc2c[nH]cn2)NC(=O)[C@H](CC(=O)O)NC(=O)[C@H](Cc2c[nH]c3ccc(F)cc23)NC(=O)[C@H](Cc2c[nH]c3ccc(F)cc23)NC(=O)CNC1=O [Compound 293] ([Mpa]KG[Trp(5-F)][Trp(5-F)]DHY[Pro(trans-4-Ph)]C-NH2; linker 1-10 via mXylylene)	0.0001 to 0.1
CC(=O)N[C@H]1CSCc2cccc(c2)CSC[C@@H](C(N)=O)NC(=O)[C@@H]2CCCN2C(=O)[C@H](Cc2ccc(O)cc2)NC(=O)[C@H](Cc2c[nH]cn2)NC(=O)[C@H](CC(=O)O)NC(=O)[C@H](Cc2c[nH]c3ccc(F)cc23)NC(=O)[C@H](Cc2c[nH]c3ccccc23)NC(=O)CNC(=O)[C@H](CCCCN)NC1=O [Compound 176] (Ac-CKGW[Trp(5-F)]DHYPC-NH2; linker 1-10 via mXylylene)	21 to 50
C[C@H]1C(=O)N(C)[C@@H](Cc2ccc(O)cc2)C(=O)N2CCC[C@H]2C(=O)N[C@H](C(N)=O)CSCc2cccc(c2)CSCCC(=O)N[C@@H](CCCCN)C(=O)N(C)CC(=O)N(C)[C@@H](Cc2c[nH]c3ccccc23)C(=O)N[C@@H](Cc2c[nH]c3ccccc23)C(=O)N[C@@H](CC(=O)O)C(=O)N1C [Compound 015] ([Mpa]K[Sar][NMeW]WD[NMeA][NMeY]PC-NH2; linker 1-10 via mXylylene)	1 to 12.1
CC1(C)NC(=O)[C@H](Cc2cnc[nH]2)NC(=O)[C@H](CC(=O)O)NC(=O)[C@H](Cc2c[nH]c3ccc(F)cc23)NC(=O)[C@H](Cc2c[nH]c3ccc(F)cc23)NC(=O)CNC(=O)[C@H](CCCCN)NC(=O)CCSCc2cccc(c2)CSC[C@@H](C(N)=O)NC(=O)[C@@H]2CCCN2C1=O [Compound 318] ([Mpa]KG[Trp(5-F)][Trp(5-F)]DH[Aib]PC-NH2; linker 1-10 via mXylylene)	0.0001 to 0.1
C[C@H]1NC(=O)[C@H](CC(=O)O)NC(=O)[C@H](Cc2c[nH]c3ccc(F)cc23)NC(=O)[C@H](Cc2c[nH]c3ccc(F)cc23)NC(=O)CNC(=O)[C@H](CCCCN)NC(=O)CCSCc2cccc(c2)CSC[C@@H](C(N)=O)NC(=O)[C@]2(C)CCCN2C(=O)[C@H](Cc2ccc(O)cc2)NC1=O [Compound 033] ([Mpa]KG[Trp(5-F)][Trp(5-F)]D[dA]Y[αMeP]C-NH2; linker 1-10 via mXylylene)	1 to 12.1
C[C@H]1NC(=O)[C@H](Cc2c[nH]c3ccc(F)cc23)NC(=O)[C@H](Cc2c[nH]c3ccc(F)cc23)NC(=O)CNC(=O)[C@H](CCCCN)NC(=O)CCSCc2cccc(c2)CSC[C@@H](C(N)=O)NC(=O)[C@]2(C)CCCN2C(=O)[C@H](Cc2ccc(O)cc2)NC(=O)[C@H](Cc2cnc[nH]2)NC1=O [Compound 032] ([Mpa]KG[Trp(5-F)][Trp(5-F)][dA]HY[αMeP]C-NH2; linker 1-10 via mXylylene)	0.1 to 1
NCCCC[C@@H]1NC(=O)CCSCc2cccc(c2)CSC[C@@H](C(N)=O)NC(=O)[C@@H]2CCCCN2C(=O)[C@H](Cc2ccc(O)cc2)NC(=O)[C@H](Cc2cnc[nH]2)NC(=O)[C@H](CC(=O)O)NC(=O)[C@H](Cc2c[nH]c3ccc(F)cc23)NC(=O)[C@H](Cc2c[nH]c3ccc(F)cc23)NC(=O)CNC1=O [Compound 208] ([Mpa]KG[Trp(5-F)][Trp(5-F)]DHY[Pip]C-NH2; linker 1-10 via mXylylene)	21 to 50
CCCCCCCCCCCCCCCC(=O)N[C@@H](CCC(=O)N[C@@H](CCC(=O)NCCCC[C@@H]1NC(=O)CCSCc2cccc(c2)CSC[C@@H](C(N)=O)NC(=O)[C@]2(C)CCCN2C(=O)[C@H](Cc2ccc(O)cc2)NC(=O)[C@H](Cc2c[nH]cn2)NC(=O)[C@H](CC(=O)O)NC(=O)[C@H](Cc2c[nH]c3ccc(F)cc23)NC(=O)[C@H](Cc2c[nH]c3ccc(F)cc23)NC(=O)CNC1=O)C(=O)O)C(=O)O [Compound 283] ([Mpa]K([γGlu-γGlu-Palmitoyl])G[Trp(5-F)][Trp(5-F)]DHY[αMeP]C-NH2; linker 1-10 via mXylylene)	21 to 50
NCCCC[C@@H]1NC(=O)CCSCc2cccc(c2)CSC[C@@H](C(N)=O)NC(=O)[C@@H]2CCCN2C(=O)[C@H](Cc2ccc(O)cc2)NC(=O)[C@H](Cc2c[nH]cn2)NC(=O)[C@H](CC(=O)O)NC(=O)[C@H](Cc2c[nH]c3ccc(F)cc23)NC(=O)[C@H](Cc2cccc3ccccc23)NC(=O)CNC1=O [Compound 209] ([Mpa]KG[1Nal][Trp(5-F)]DHYPC-NH2; linker 1-10 via mXylylene)	1 to 12.1
NCCCC[C@@H]1NC(=O)CCCCn2cc(nn2)CCC[C@@H](C(N)=O)NC(=O)[C@@H]2CCCN2C(=O)[C@H](Cc2ccc(O)cc2)NC(=O)[C@H](Cc2c[nH]cn2)NC(=O)[C@H](CC(=O)O)NC(=O)[C@H](Cc2c[nH]c3ccc(F)cc23)NC(=O)[C@H](Cc2c[nH]c3ccc(F)cc23)NC(=O)CNC1=O [Compound 153]	1 to 12.1
C[C@@H](O)[C@@H]1NC(=O)[C@@H]2CCCN2C(=O)[C@H](Cc2c[nH]c3ccc(F)cc23)NC(=O)[C@H](Cc2c[nH]c3ccc(F)cc23)NC(=O)CNC(=O)[C@H](CCCCN)NC(=O)CCSCc2cccc(c2)CSC[C@@H](C(N)=O)NC(=O)[C@]2(C)CCCN2C(=O)[C@H](Cc2ccc(O)cc2)NC1=O [Compound 014] ([Mpa]KG[Trp(5-F)][Trp(5-F)]PTY[αMeP]C-NH2; linker 1-10 via mXylylene)	0.1 to 1
COc1ccc(C[C@@H]2NC(=O)[C@H]([C@@H](C)OC)NC(=O)[C@@H]3CC/C=C\COc4cccc(c4)C[C@H](NC(=O)[C@@H](C)NC(=O)[C@H](C)NC(=O)CCSCc4cc(F)cc(c4)CSCCNC(=O)[C@]4(C)CCCN4C2=O)C(=O)N[C@@H](Cc2c[nH]c4ccc(F)cc24)C(=O)N3C)cc1 [Compound 505] (cyclo(A[dA][X25][Trp(5-F)][X42]T(Me)Y(Me)[αMeP][X3]); staple (Z) 3-5)	0.1 to 1
